Data published in US11028075B2, “Therapeutic compounds and methods of use thereof” (GENENTECH, INC., priority 2018, dated 2021).
Structures can show the parent of a compound that is named as a salt.

How the values were obtained:
hNav1.7 [1] = target: T1, hNav1.7 (Homo sapiens (Human), UniProt Q15858); assay: Tritiated compound binding to membranes from cells heterologously expressing hNav1.7 and the β1 subunit (Nav1.7 LBA); settings: competitive binding vs [3H]compound, membranes with hNav1.7 and β1 subunit; read-out: Nav1.7 LBA EVO IC50
In short: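 Membranes from cells expressing hNav1.7 with β1 were incubated at room temperature with a tritiated competitive Nav1.7 inhibitor plus test compound in 100 mM NaCl, 20 mM Tris pH 7.4, 0.01% BSA; nonspecific binding was set with 1 μM unlabeled compound. Incubation was 18 h with […] radioligand, or 3 h with […]. Bound ligand was filtered and counted, and IC50 came from a 4-parameter fit.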
Target sequence in this assay (Q15858 whole entry, looked up): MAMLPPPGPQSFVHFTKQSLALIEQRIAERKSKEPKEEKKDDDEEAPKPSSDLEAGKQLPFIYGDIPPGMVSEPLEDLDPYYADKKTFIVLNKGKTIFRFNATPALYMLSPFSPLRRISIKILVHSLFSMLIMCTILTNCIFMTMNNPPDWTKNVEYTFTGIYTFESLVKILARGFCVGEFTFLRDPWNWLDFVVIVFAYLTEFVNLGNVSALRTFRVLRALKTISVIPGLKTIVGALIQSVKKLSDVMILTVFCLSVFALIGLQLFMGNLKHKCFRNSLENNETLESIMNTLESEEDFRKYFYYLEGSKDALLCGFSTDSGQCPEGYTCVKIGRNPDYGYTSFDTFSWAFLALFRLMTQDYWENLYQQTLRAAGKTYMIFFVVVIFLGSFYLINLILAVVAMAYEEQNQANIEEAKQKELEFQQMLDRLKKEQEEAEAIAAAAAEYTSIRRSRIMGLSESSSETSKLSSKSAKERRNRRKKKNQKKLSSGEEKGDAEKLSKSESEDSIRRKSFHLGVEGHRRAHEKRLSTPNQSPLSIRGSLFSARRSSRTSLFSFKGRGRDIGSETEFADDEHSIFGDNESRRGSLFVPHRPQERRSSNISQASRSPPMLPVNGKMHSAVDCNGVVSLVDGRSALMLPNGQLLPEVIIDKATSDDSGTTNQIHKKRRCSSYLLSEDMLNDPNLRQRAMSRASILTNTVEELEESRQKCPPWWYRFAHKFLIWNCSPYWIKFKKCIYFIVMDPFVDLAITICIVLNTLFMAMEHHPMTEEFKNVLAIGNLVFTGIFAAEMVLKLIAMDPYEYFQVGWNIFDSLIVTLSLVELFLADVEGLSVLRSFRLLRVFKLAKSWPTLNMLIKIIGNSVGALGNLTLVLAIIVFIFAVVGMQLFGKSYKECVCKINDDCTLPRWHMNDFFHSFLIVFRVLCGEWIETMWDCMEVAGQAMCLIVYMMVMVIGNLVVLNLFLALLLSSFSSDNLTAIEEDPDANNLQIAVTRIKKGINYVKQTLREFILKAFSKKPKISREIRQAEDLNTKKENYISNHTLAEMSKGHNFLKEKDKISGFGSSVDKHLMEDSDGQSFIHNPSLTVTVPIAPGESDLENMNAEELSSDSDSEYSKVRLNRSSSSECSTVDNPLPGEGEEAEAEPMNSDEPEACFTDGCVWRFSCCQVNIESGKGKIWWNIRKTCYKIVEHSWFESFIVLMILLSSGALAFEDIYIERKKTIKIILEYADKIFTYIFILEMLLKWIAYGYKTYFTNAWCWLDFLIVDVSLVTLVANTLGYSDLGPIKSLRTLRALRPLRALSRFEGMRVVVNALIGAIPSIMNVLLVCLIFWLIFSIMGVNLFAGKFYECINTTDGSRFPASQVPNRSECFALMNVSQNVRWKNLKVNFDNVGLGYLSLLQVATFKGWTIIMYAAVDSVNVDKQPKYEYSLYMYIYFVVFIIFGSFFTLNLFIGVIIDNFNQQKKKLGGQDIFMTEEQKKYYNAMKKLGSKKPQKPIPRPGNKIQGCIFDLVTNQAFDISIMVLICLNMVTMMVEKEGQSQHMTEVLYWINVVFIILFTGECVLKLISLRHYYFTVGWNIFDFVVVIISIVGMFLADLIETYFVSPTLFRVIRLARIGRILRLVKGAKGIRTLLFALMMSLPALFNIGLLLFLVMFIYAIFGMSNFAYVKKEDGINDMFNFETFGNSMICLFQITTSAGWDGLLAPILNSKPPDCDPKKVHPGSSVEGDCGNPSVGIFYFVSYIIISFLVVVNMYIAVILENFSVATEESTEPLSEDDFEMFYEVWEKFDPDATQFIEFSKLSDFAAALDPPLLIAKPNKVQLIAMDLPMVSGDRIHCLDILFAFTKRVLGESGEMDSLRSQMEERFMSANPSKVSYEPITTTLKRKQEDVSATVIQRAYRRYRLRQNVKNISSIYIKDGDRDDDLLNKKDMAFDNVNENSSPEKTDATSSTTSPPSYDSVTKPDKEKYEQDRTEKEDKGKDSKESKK
Target sequence in this assay (Q07699 whole entry partner, looked up): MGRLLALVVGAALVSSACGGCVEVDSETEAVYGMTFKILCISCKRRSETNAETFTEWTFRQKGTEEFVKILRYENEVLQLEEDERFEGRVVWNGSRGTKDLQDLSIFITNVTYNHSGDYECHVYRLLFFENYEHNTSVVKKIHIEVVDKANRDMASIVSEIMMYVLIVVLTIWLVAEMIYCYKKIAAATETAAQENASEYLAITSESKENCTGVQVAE

hNav1.7 [2] = target: T1, hNav1.7; assay: Electrophysiological assay (EP), voltage clamp on Syncropatch 384PE, CHO cells stably expressing Nav1.7; format: cell-based; settings: holding potential −50 mV, 7.5 min compound incubation, read-out: EP_SP hNav1.7 EVO IC50
In short: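 Whole-cell automated patch clamp was run on CHO cells stably expressing human Nav1.7 cDNA, with internal solution CsCl/EGTA pH 7.2, external solution 80 mM NaCl pH 7.4, and 0.1% Pluronic F-127. From a −50 mV holding potential: −10 mV for 10 ms, −150 mV for 20 ms, then −10 mV for 10 ms, where current was measured. Inhibition was taken after 7.5 min compound incubation, with TTX added for full block.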
Target sequence in this assay (Q15858 other isoform, or with tags, fused parts or gaps): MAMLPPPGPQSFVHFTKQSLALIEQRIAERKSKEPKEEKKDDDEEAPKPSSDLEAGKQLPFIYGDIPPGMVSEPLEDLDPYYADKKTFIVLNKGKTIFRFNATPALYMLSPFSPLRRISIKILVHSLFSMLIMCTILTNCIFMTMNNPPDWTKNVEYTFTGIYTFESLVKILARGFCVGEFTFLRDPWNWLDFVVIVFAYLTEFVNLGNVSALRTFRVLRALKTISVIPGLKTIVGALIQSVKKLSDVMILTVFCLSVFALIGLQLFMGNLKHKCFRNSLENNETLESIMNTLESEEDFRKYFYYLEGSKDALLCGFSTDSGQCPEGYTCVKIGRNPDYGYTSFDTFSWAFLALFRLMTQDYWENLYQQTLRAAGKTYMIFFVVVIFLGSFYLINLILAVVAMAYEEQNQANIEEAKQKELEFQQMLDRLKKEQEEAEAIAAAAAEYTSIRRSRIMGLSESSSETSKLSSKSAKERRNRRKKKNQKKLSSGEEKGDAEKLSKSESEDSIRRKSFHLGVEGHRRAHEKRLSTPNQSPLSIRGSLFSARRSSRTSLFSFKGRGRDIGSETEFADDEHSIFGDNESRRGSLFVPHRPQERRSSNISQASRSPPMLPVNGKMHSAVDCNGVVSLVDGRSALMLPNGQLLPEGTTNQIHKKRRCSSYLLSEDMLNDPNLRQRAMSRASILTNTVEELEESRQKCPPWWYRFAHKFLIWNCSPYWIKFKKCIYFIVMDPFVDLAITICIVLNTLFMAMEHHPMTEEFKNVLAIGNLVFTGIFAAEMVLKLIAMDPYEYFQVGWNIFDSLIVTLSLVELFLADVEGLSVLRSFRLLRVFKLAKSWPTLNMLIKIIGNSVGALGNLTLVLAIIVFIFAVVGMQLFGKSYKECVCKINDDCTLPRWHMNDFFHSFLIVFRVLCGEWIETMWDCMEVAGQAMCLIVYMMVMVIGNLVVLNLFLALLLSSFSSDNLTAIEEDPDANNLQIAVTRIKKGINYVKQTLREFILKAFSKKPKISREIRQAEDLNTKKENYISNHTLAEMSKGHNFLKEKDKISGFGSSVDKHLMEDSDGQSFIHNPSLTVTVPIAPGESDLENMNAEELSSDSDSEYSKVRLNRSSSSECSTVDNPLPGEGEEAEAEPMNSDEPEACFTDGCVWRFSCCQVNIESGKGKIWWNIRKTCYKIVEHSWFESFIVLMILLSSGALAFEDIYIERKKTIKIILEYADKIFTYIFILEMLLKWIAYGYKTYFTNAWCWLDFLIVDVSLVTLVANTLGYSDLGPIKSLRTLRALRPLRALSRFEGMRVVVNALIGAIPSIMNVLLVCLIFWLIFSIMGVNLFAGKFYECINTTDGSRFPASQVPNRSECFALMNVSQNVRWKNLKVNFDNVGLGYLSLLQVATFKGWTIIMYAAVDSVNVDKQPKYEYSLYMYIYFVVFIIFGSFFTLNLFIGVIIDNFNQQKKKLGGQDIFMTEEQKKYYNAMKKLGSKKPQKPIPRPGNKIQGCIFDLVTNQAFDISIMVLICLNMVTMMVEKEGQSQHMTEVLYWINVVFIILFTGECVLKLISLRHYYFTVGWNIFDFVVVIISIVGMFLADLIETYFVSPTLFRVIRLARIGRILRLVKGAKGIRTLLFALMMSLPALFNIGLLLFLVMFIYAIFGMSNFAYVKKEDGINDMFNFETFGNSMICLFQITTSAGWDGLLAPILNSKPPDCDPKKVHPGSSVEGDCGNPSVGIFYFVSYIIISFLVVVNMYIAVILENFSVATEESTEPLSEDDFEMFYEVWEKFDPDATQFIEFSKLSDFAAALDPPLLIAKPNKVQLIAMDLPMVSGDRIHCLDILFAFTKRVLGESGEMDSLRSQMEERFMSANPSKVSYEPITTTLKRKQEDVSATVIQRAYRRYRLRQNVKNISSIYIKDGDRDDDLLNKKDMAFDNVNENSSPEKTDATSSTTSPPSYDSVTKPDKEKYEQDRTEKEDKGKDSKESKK

Compound	IC50 (hNav1.7 [1]) [nM]	IC50 (hNav1.7 [2]) [nM]
5-Chloro-4-(((1S,3R,4R,6R)-7,7-dichloro-4-(dimethylamino)-6-(3-(trifluoromethyl)-phenyl)bicyclo[4.1.0]heptan-3-yl)amino)-2-fluoro-N-(pyrimidin-4-yl)benzenesulfonamide [Example 53]	46.2	1.86
CN(C)[C@H]1C[C@@H](c2cccc(C(F)(F)F)c2)CC[C@@H]1N1CCCc2cc(S(=O)(=O)Nc3ccncn3)c(F)cc21 [Example 54, 1-((1S,2S,4S)-2-(Dimethylamino)-4-(3-(trifluoromethyl)phenyl)cyclohexyl)-7-fluoro-N-(pyrimidin-4-yl)-1,2,3,4-tetrahydroquinoline-6-sulfonamide]	0.604	1.41
O=S(=O)(Nc1ccncn1)c1cc(Cl)c(O[C@H]2CC[C@H](c3cccc(C(F)(F)F)c3)C[C@@H]2N2CCCC2)cc1F [Example 60, 5-chloro-2-fluoro-N-(pyrimidin-4-yl)-4-(((1S,2S,4S)-2-(pyrrolidin-1-yl)-4-(3-(trifluoromethyl)-phenyl)cyclohexyl)oxy)benzenesulfonamide formate]	1.6	0.745
CN(C)[C@H]1C[C@@H](c2ccc(F)c(C(F)(F)F)c2)CC[C@@H]1Nc1cc(F)c(S(=O)(=O)Nc2ccncn2)cc1Cl [Example 6, 5-chloro-4-(((1S,2S,4S)-2-(dimethylamino)-4-(4-fluoro-3-(trifluoromethyl)phenyl)-cyclohexyl)amino)-2-fluoro-N-(pyrimidin-4-yl)benzenesulfonamide]	0.791	0.765
CN(C)[C@H]1C[C@@H](c2cccc(-c3ccnn3C)c2)CC[C@@H]1Nc1cc(F)c(S(=O)(=O)Nc2ccncn2)cc1Cl [Example 21, 5-Chloro-4-(((1S,2S,4S)-2-(dimethylamino)-4-(3-(1-methyl-1H-pyrazol-5-yl)phenyl)-cyclohexyl)amino)-2-fluoro-N-(pyrimidin-4-yl)benzenesulfonamide]	12.9	8.03
CN1CC(N(C)[C@H]2C[C@@H](c3cccc(C(F)(F)F)c3)CC[C@@H]2Nc2cc(F)c(S(=O)(=O)Nc3ccncn3)cc2Cl)C1 [Example 45, 5-chloro-2-fluoro-4-(((1S,2S,4S)-2-(methyl(1-methylazetidin-3-yl)amino)-4-(3-(trifluoromethyl)phenyl)cyclohexyl)amino)-N-(pyrimidin-4-yl)benzenesulfonamide]	0.399	0.241
CN(C)[C@H]1C[C@@H](c2cccc(OC(F)F)c2)CC[C@@H]1Nc1cc(F)c(S(=O)(=O)Nc2ccncn2)cc1Cl [Example 14, 5-Chloro-4-[[(1S,2S,4S)-4-[3-(difluoromethoxy)phenyl]-2-(dimethylamino)-cyclohexyl]amino]-2-fluoro-N-pyrimidin-4-yl-benzenesulfonamide]	4.64	1.63
O=S(=O)(Nc1ccncn1)c1cc(F)c(N[C@H]2CC[C@H](c3cccc(OC(F)(F)F)c3)C[C@@H]2N2CCCC2)cc1F [Example 61, 2,5-difluoro-N-(pyrimidin-4-yl)-4-(((1S,2S,4S)-2-(pyrrolidin-1-yl)-4-(3-(trifluoromethoxy)-phenyl)cyclohexyl)amino)benzenesulfonamide formate]	1.54	0.322
CN(C)[C@H]1C[C@@H](c2ccc(Cl)c(Cl)c2)CC[C@@H]1Nc1cc(F)c(S(=O)(=O)Nc2ccncn2)cc1Cl [Example 4, 5-Chloro-4-(((1S,2S,4S)-4-(3,4-dichlorophenyl)-2-(dimethylamino)cyclohexyl)amino)-2-fluoro-N-(pyrimidin-4-yl)benzenesulfonamide]	1.2	0.305
CN(C)[C@H]1C[C@](O)(c2cccc(C(F)(F)F)c2)CC[C@@H]1Nc1cc(F)c(S(=O)(=O)Nc2ccncn2)cc1Cl (single isomer, unassigned) [Example 37]	≥ 2000	371
O=S(=O)(Nc1ccncn1)c1cc(F)c(O[C@H]2CC[C@H](c3cccc(C(F)(F)F)c3)C[C@@H]2N2CCCC2)cc1F [Example 58, 2,5-difluoro-N-(pyrimidin-4-yl)-4-(((1S,2S,4S)-2-(pyrrolidin-1-yl)-4-(3-(trifluoromethyl)-phenyl)cyclohexyl)oxy)benzenesulfonamide]	22.7	2.73
CN(C)[C@H]1C[C@@H](c2cccc(C(C)(F)F)c2)CC[C@@H]1Nc1cc(F)c(S(=O)(=O)Nc2ccncn2)cc1Cl [Example 32, 5-chloro-4-(((1S,2S,4S)-4-(3-(1,1-difluoroethyl)phenyl)-2-(dimethylamino)-cyclohexyl)-amino)-2-fluoro-N-(pyrimidin-4-yl)benzenesulfonamide]	2.04	1.6
CN1CC[C@@H](C(=O)N(C)[C@H]2C[C@@H](c3cccc(C(F)(F)F)c3)CC[C@@H]2Nc2cc(F)c(S(=O)(=O)Nc3ccncn3)cc2Cl)C1 [Example 34, (R)—N-((1S,2S,5S)-2-((2-Chloro-5-fluoro-4-(N-(pyrimidin-4-yl)sulfamoyl)phenyl)amino)-5-(3-(trifluoromethyl)phenyl)cyclohexyl)-N,1-dimethylpyrrolidine-3-carboxamide]	2.6	0.672
CN(CCO)[C@H]1C[C@@H](c2cccc(C(F)(F)F)c2)CC[C@@H]1Nc1cc(F)c(S(=O)(=O)Nc2ccncn2)cc1Cl [Example 41, 5-chloro-2-fluoro-4-(((1S,2S,4S)-2-((2-hydroxyethyl)(methyl)amino)-4-(3-(trifluoromethyl)-phenyl)cyclohexyl)amino)-N-(pyrimidin-4-yl)benzenesulfonamide]	0.623	0.534
CN(C)[C@H]1C[C@@H](c2cccc(C(F)(F)F)c2)CC[C@@H]1Oc1cc(F)c(S(=O)(=O)Nc2ccncn2)cc1Br [Example 56, 5-Bromo-4-(((1S,2S,4S)-2-(dimethylamino)-4-(3-(trifluoromethyl)phenyl)cyclohexyl)oxy)-2-fluoro-N-(pyrimidin-4-yl)benzenesulfonamide]	1.92	0.528
O=S(=O)(Nc1ccncn1)c1cc(F)c(N[C@H]2CC[C@H](c3cccc(C(F)(F)F)c3)C[C@@H]2N2CCCCC2)cc1F [Example 62, 2,5-difluoro-4-(((1S,2S,4S)-2-(piperidin-1-yl)-4-(3-(trifluoromethyl)phenyl)cyclohexyl)-amino)-N-(pyrimidin-4-yl)benzenesulfonamide formate]	0.816	0.628

The next lines start with the values.

IC50 (hNav1.7 [1]) [nM]	IC50 (hNav1.7 [2]) [nM]	Compound
1.37	0.554	O=S(=O)(Nc1ccncn1)c1cc(Cl)c(O[C@H]2CC[C@H](c3cccc(OC(F)(F)F)c3)C[C@@H]2N2CCCC2)cc1F [Example 64, 5-chloro-2-fluoro-N-(pyrimidin-4-yl)-4-(((1S,2S,4S)-2-(pyrrolidin-1-yl)-4-(3-(trifluoromethoxy)-phenyl)cyclohexyl)oxy)benzenesulfonamide formate]
38.6	6.36	CN(C)[C@H]1C[C@@H](c2cccc(C3CCOCC3)c2)CC[C@@H]1Oc1cc(F)c(S(=O)(=O)Nc2ccncn2)cc1Cl [Example 83]
223	18	CN(C)[C@H]1C[C@@H](c2cccc(C(F)(F)F)c2)CC[C@@H]1Oc1ccc(S(=O)(=O)Nc2ccncn2)cc1F [Example 79, 4-(((1S,2S,4S)-2-(Dimethylamino)-4-(3-(trifluoromethyl)phenyl)cyclohexyl)oxy)-3-fluoro-N-(pyrimidin-4-yl)benzenesulfonamide]
4.01	1.85	CN(C)[C@H]1C[C@@H](c2cc(C(F)(F)F)ccc2F)CC[C@@H]1Oc1cc(F)c(S(=O)(=O)Nc2ccncn2)cc1Cl [Example 74, 5-chloro-4-(((1S,2S,4S)-2-(dimethylamino)-4-(2-fluoro-5-(trifluoromethyl)phenyl)cyclohexyl)oxy)-2-fluoro-N-(pyrimidin-4-yl)benzenesulfonamide]
2.24	0.494	O=S(=O)(Nc1ccncn1)c1cc(F)c(N[C@H]2CC[C@H](c3cc(F)cc(C(F)(F)F)c3)C[C@@H]2N2CCCC2)cc1F [Example 85, 2,5-difluoro-4-(((1S,2S,4S)-4-(3-fluoro-5-(trifluoromethyl)phenyl)-2-(pyrrolidin-1-yl)cyclohexyl)-amino)-N-(pyrimidin-4-yl)benzenesulfonamide formate]
0.877	0.52	O=S(=O)(Nc1ccncn1)c1cc(F)c(N[C@H]2CC[C@H](c3ccc(F)c(C(F)(F)F)c3)C[C@@H]2N2CCCC2)cc1F [Example 84, 2,5-difluoro-4-(((1S,2S,4S)-4-(4-fluoro-3-(trifluoromethyl)phenyl)-2-(pyrrolidin-1-yl)cyclohexyl)-amino)-N-(pyrimidin-4-yl)benzenesulfonamide]
11.2	0.709	CN[C@H]1C[C@@H](c2cccc(C(F)(F)F)c2)CC[C@@H]1Oc1cc(F)c(S(=O)(=O)Nc2ccncn2)cc1Cl [Example 63, 5-chloro-2-fluoro-4-(((1S,2S,4S)-2-(methylamino)-4-(3-(trifluoromethyl)phenyl)-cyclohexyl)oxy)-N-(pyrimidin-4-yl)benzenesulfonamide]
1.69	0.737	CCN[C@H]1C[C@@H](c2cccc(C(F)(F)F)c2)CC[C@@H]1Oc1cc(F)c(S(=O)(=O)Nc2ccncn2)cc1Cl [Example 68, 5-chloro-4-(((1S,2S,4S)-2-(ethylamino)-4-(3-(trifluoromethyl)phenyl)cyclohexyl)oxy)-2-fluoro-N-(pyrimidin-4-yl)benzenesulfonamide formate]
